The text below walks through data of PMC12057336 (Antimicrobial Agents and Chemotherapy, 2025).

Where two headings read alike, the source gives them in different places.

Data set [1] concerns the target T1, human OAT3 (Homo sapiens, UniProt Q8TCC7).
T1 sequence (Q8TCC7 1-542): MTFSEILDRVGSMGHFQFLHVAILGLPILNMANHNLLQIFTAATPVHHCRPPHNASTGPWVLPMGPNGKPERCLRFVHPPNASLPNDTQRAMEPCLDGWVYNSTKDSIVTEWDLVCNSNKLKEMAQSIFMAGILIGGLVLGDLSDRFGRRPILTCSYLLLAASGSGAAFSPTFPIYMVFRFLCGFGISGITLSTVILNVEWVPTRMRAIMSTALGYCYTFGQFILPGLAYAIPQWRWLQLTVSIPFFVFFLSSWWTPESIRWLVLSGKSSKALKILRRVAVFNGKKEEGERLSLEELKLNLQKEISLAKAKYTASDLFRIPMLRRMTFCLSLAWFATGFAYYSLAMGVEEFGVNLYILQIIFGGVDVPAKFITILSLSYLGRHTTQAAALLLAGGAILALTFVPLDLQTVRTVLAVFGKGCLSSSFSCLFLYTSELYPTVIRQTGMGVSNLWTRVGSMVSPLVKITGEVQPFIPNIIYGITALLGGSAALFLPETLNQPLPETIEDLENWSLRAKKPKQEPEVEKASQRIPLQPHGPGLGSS
The experiment in a line: Uptake in OAT3-transfected HEK293 cells. Conditions: 5 µM; 10 min; 37°C; vs mock cells. As for the experimental part: OATP1B1-, OATP1B3-, OATP2B1-, NTCP-, OAT1-, and OAT3-transfected HEK293 cells were cultured in DMEM supplemented with 10% FBS, 100 U/mL penicillin-streptomycin at 37°C with 95% relative humidity atmosphere containing 5% CO2. All cells were seeded in 24-well plates at a density of 4 × 10^5 cells/well and cultured for 1–2 days until they reached 80%–90% confluence. Prior to the initiation of uptake studies, the cells were washed twice with HBSS buffer at 37°C. Membrane vesicles were stored at −80°C and thawed at 37°C prior to the initiation of the studies.
All uptake tests were performed in triplicates. The activities of transporter-transfected HEK293 cells were evaluated using relevant positive substrates and inhibitors. E17G (5 µM, OATP1B1 and OATP1B3), ES (2 µM, OATP2B1), ES (5 µM, OAT3), TCA (10 µM, NTCP), and PAH (20 µM, OAT1) were used as substrates of the transporters. The inhibitors for each transporter were rifampicin (200 µM, OATP1B1 and OATP1B3), erlotinib (10 µM, OATP2B1), CsA (20 µM, NTCP), and probenecid (200 µM, OAT1 and OAT3).
The cells were washed three times with ice-cold HBSS buffer. […] The total protein concentration was measured using a BCA Protein Assay Kit. The uptake rates of HEK293-OATP1B1, HEK293-OATP1B3, HEK293-OATP2B1, HEK293-NTCP, HEK293-OAT1, HEK293-OAT3, and mock cells were calculated. […]

The subject of data set [2] is OCT3. On the set-up: method as in PMID 27645247, PMID 26976869, PMID 27550354. Conditions: cited from earlier work.
For data set [3] the following is noted: cited from earlier work; for median plasma concentration: standard doses.
[4] abbreviates: thrombocytopenic patients with moderate renal failure.

Consider `CC(=O)NC[C@H]1CN(c2ccc(N3CCOCC3)c(F)c2)C(=O)O1` [Linezolid], for which the “substrate for OAT3” value in data set [1] was “not a substrate”. The “inhibitor of OCT3” value in data set [2] is recorded as “not an inhibitor”. Also, in data set [3], the “administered dose excreted in the urine as the parent drug” value was 35%, the “apparent volume of distribution (Vd)” value was 40 to 50 L, the “elimination half-life (t1/2)” value was 5 to 7 h and the “total clearance (CL)” value is 80 mL/min. The median plasma concentration in data set [3] (controls without liver cirrhosis) was 2.70 mg/L. Besides, in data set [3] (healthy volunteers), the “mean recovery of linezolid radioactivity in excreta” value is listed as 93.8%, the “radioactivity excreted in the feces” value was 9.9% and the “radioactivity excreted in the urine” value is recorded as 83.9%. In addition, in data set [3] (humans), the “share of dosed linezolid in the urine” value is on record as “more than 30%”. For the same compound, the CL in data set [3] (patient with acute-on-chronic liver failure) is recorded as 1.54 L/h. The median plasma concentration in data set [3] (patients with liver cirrhosis) is recorded as 20.6 mg/L. The median trough concentration in data set [3] (patients with mild hepatic impairment) is given as 5.51 mg/L. Moreover, the median trough concentration in data set [3] (patients with moderate hepatic impairment) was 6.70 mg/L. Moreover, in data set [3] (patients with severe hepatic impairment), the median trough concentration was 20.7 mg/L. Also, in data set [3] (patients without concomitant liver failure), the CL is recorded as 6.26 L/h. Moreover, in data set [3] (setting [4]), the AUC0-24 is 513.1 to 994.6 µg·h/mL and the trough concentration was 14.4 to 35.6 mg/L.
